For this data set the following is noted: subcutaneous 5 mg in sesame oil vs rectal 15 mg (Diastat); plasma over 8 hours; FIG. 1.

The structures appear in SMILES notation.

For the compound `CN1C(=O)CN=C(c2ccccc2)c2cc(Cl)ccc21` [diazepam], the “rise of levels in blood, subcutaneous delivery compared with rectal delivery” value is reported as “rise more quickly than via rectal delivery”.
